Experimental data published in patent US11285156B2, “Substituted piperazines as KRAS G12C inhibitors” (Amgen Inc., priority 2018, dated 2022).

Target: GDP-bound KRAS protein (aa 1-169), containing both G12C and C118A amino acid substitutions (Homo sapiens (Human), UniProt P01116, C118A/G12C)
Assay: Coupled nucleotide exchange assay (SOS-mediated nucleotide exchange, AlphaScreen)
Format: biochemical
Conditions: 5 min compound pre-incubation; for IC50: read-out: Coupled exchange IC50 (5 min; μM)

Chain of GDP-bound KRAS protein (aa 1-169), containing both G12C and C118A amino acid substitutions (P01116 other isoform, or with tags, fused parts or gaps G12C/C118A): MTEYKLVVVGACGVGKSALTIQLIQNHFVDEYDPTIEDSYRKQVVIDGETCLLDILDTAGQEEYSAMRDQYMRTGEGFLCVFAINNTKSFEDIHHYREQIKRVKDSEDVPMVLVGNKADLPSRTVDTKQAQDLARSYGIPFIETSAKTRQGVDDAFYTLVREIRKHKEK

Row | Structure (SMILES) | IC50 [µM] | Coupled exchange IC50 (5 min; μM) [µM]
1 | C=CC(=O)N1C[C@H](C)N(c2nc(=O)n(-c3c(C)ccnc3C(C)C)c3nc(N4CCCC4C(F)F)c(Cl)cc23)C[C@H]1C (atropisomer, axis not shown; (M)) [Example 69-10, (M)-6-Chloro-7-[2-(difluoromethyl)pyrrolidin-1-yl]-4-[(2S,5R)-2,5-dimethyl-4-prop-2-enoyl-piperazin-1-yl]-1-(2-isopropyl-4-methyl-3-pyridyl)pyrido[2,3-d]pyrimidin-2-one] | 11 | 
2 | C=CC(=O)N1C[C@H](C)N(c2nc(=O)n(-c3c(C)ccnc3C(C)C)c3nc(N4CCCCC4)c(Cl)cc23)C[C@H]1C (atropisomer, axis not shown; (M)) [Example 69-11, (M)-6-Chloro-4-[(2S,5R)-2,5-dimethyl-4-prop-2-enoyl-piperazin-1-yl]-1-(2-isopropyl-4-methyl-3-pyridyl)-7-(1-piperidyl)pyrido[2,3-d]pyrimidin-2-one] | 1.14 | 
3 | [2H]C1([2H])N(C(=O)C=C)C([2H])([2H])C([2H])([2H])N(c2nc(=O)n(-c3c(C)ccnc3C(C)C)c3nc(-c4c(O)cccc4F)c(F)cc23)C1([2H])[2H] (atropisomer, axis not shown; (M)) [Example 72-22, (M)-6-Fluoro-7-(2-fluoro-6-hydroxy-phenyl)-1-(2-isopropyl-4-methyl-3-pyridyl)-4-(2,2,3,3,5,5,6,6-octadeuterio-4-prop-2-enoyl-piperazin-1-yl)pyrido[2,3-d]pyrimidin-2-one] |  | 0.408
4 | C=CC(=O)N1C[C@H](C)N(c2nc(=O)n(-c3c(C)ccnc3C(C)C)c3nc(-c4ccccc4P(C)(C)=O)c(F)cc23)C[C@H]1C (atropisomer, axis not shown; (M)) [Example 72-23, (M)-7-(2-Dimethylphosphorylphenyl)-4-[(2S,5R)-2,5-dimethyl-4-prop-2-enoyl-piperazin-1-yl]-6-fluoro-1-(2-isopropyl-4-methyl-3-pyridyl)pyrido[2,3-d]pyrimidin-2-one] | 0.647 | 
5 | C=CC(=O)N1[C@@H]2CC[C@H]1CN(c1nc(=O)n(-c3c(C)ccnc3C(C)C)c3nc(-c4ccccc4F)c(Cl)cc13)C2 (atropisomer, axis not shown; (M)) [Example 79-10, (M)-6-Chloro-7-(2-fluorophenyl)-1-(2-isopropyl-4-methyl-3-pyridyl)-4-[(1S,5R)-8-prop-2-enoyl-3,8-diazabicyclo[3.2.1]octan-3-yl]pyrido[2,3-d]pyrimidin-2-one] | 2.78 | 
6 | C=CC(=O)N1C[C@@H]2CC[C@H]1CN2c1nc(=O)n(-c2c(C)ccnc2C(C)C)c2nc(-c3ccccc3F)c(Cl)cc12 (atropisomer, axis not shown; (M)) [Example 79-11, (M)-6-Chloro-7-(2-fluorophenyl)-1-(2-isopropyl-4-methyl-3-pyridyl)-4-[(1S,4S)-5-prop-2-enoyl-2,5-diazabicyclo[2.2.2]octan-2-yl]pyrido[2,3-d]pyrimidin-2-one] | 26.7 | 
7 | C=CC(=O)N1C[C@H]2CCC[C@@H](C1)N2c1nc(=O)n(-c2c(C)ccnc2C(C)C)c2nc(-c3ccccc3F)c(Cl)cc12 (atropisomer, axis not shown; (M)) [Example 79-12, (M)-6-Chloro-7-(2-fluorophenyl)-1-(2-isopropyl-4-methyl-3-pyridyl)-4-[(1S,5R)-3-prop-2-enoyl-3,9-diazabicyclo[3.3.1]nonan-9-yl]pyrido[2,3-d]pyrimidin-2-one] | 5.46 | 
8 | C=CC(=O)N1C[C@H](C)N(c2nc(=O)n(-c3c(C)ccnc3C(C)C)c3nc(C=C(C)C)c(Cl)cc23)C[C@H]1C (atropisomer, axis not shown; (M)) [Example 92-8, (M)-6-Chloro-4-[(2S,5R)-2,5-dimethyl-4-prop-2-enoyl-piperazin-1-yl]-1-(2-isopropyl-4-methyl-3-pyridyl)-7-(2-methylprop-1-enyl)pyrido[2,3-d]pyrimidin-2-one] | 0.985 | 
9 | C=CC(=O)N1C[C@H](C)N(c2nc(=O)n(-c3c(C)ccnc3C(C)C)c3nc(C4=CCOCC4)c(Cl)cc23)C[C@H]1C (atropisomer, axis not shown; (M)) [Example 92-9, (M)-6-Chloro-7-(3,6-dihydro-2H-pyran-4-yl)-4-[(2S,5R)-2,5-dimethyl-4-prop-2-enoyl-piperazin-1-yl]-1-(2-isopropyl-4-methyl-3-pyridyl)pyrido [2,3-d]pyrimidin-2-one] | 8.53 | 
10 | C=CC(=O)N1C[C@H](C)N(c2nc(=O)n(-c3c(C)ccnc3C(C)C)c3nc(-c4cccc5c4NC(=O)C5)c(Cl)cc23)C[C@H]1C (atropisomer, axis not shown; (M)) [Example 92-20, (M)-6-Chloro-4-[(2S,5R)-2,5-dimethyl-4-prop-2-enoyl-piperazin-1-yl]-1-(2-isopropyl-4-methyl-3-pyridyl)-7-(2-oxoindolin-7-yl)pyrido[2,3-d]pyrimidin-2-one] | 0.403 | 
11 | C=CC(=O)N1C[C@H](C)N(c2nc(=O)n(-c3c(C)ccnc3C(C)C)c3[nH]c(=O)c(Cl)cc23)C[C@H]1C (atropisomer, axis not shown; (M)) [Example 92-22, (M)-6-Chloro-4-[(2S,5R)-2,5-dimethyl-4-prop-2-enoyl-piperazin-1-yl]-1-(2-isopropyl-4-methyl-3-pyridyl)-8H-pyrido[2,3-d]pyrimidine-2,7-dione] | 2.94 | 
12 | C=CC(=O)N1C[C@H](C)N(c2nc(=O)n(-c3c(C)ccnc3C(C)C)c3nc(-c4cccc5cn[nH]c45)c(Cl)cc23)C[C@H]1C (atropisomer, axis not shown; (M)) [Example 92-30, (M)-6-Chloro-4-[(2S,5R)-2,5-dimethyl-4-prop-2-enoyl-piperazin-1-yl]-7-(1H-indazol-7-yl)-1-(2-isopropyl-4-methyl-3-pyridyl)pyrido [2,3-d]pyrimidin-2-one] | 0.479 | 
13 | C=CC(=O)N1C[C@H](C)N(c2nc(=O)n(-c3c(C)ccnc3C(C)C)c3nc(-c4ccccc4NC(=O)C(C)(C)C)c(Cl)cc23)C[C@H]1C (atropisomer, axis not shown; (M)) [Example 92-35, (M)-N-[2-[6-Chloro-4-[(2S,5R)-2,5-dimethyl-4-prop-2-enoyl-piperazin-1-yl]-1-(2-isopropyl-4-methyl-3-pyridyl)-2-oxo-pyrido[2,3-d]pyrimidin-7-yl]phenyl]-2,2-dimethyl-propanamide] | 0.758 | 
14 | C=CC(=O)N1C[C@H](C)N(c2nc(=O)n(-c3c(C)ccnc3C(C)C)c3nc(-c4ccsc4)c(Cl)cc23)C[C@H]1C (atropisomer, axis not shown; (M)) [Example 92-50, (M)-6-Chloro-4-[(2S,5R)-2,5-dimethyl-4-prop-2-enoyl-piperazin-1-yl]-1-(2-isopropyl-4-methyl-3-pyridyl)-7-(3-thienyl)pyrido[2,3-d]pyrimidin-2-one] | 1.1 | 
15 | C=CC(=O)N1C[C@H](C)N(c2nc(=O)n(-c3c(C)ccnc3C(C)C)c3nc(-c4cccc(C(F)(F)F)c4)c(Cl)cc23)C[C@H]1C (atropisomer, axis not shown; (M)) [Example 92-56, (M)-6-Chloro-4-[(2S,5R)-2,5-dimethyl-4-prop-2-enoyl-piperazin-1-yl]-1-(2-isopropyl-4-methyl-3-pyridyl)-7-[3-(trifluoromethyl)phenyl]pyrido [2,3-d]pyrimidin-2-one] | 0.591 | 
16 | C=CC(=O)N1C[C@H](C)N(c2nc(=O)n(-c3c(C)ccnc3C(C)C)c3nc(-c4cncnc4C(C)C)c(Cl)cc23)C[C@H]1C (atropisomer, axis not shown; (M)) [Example 92-68, (M)-6-Chloro-4-[(2S,5R)-2,5-dimethyl-4-prop-2-enoyl-piperazin-1-yl]-1-(2-isopropyl-4-methyl-3-pyridyl)-7-(4-isopropylpy-rimidin-5-yl)pyrido[2,3-d]pyrimidin-2-one] | 3.31 | 
17 | C=CC(=O)N1C[C@H](C)N(c2nc(=O)n(-c3c(C)ccnc3C(C)C)c3nc(-c4cccnc4C4CC4)c(Cl)cc23)C[C@H]1C (atropisomer, axis not shown; (M)) [Example 92-69, (M)-6-Chloro-7-(2-cyclopropyl-3-pyridyl)-4-[(2S,5R)-2,5-dimethyl-4-prop-2-enoyl-piperazin-1-yl]-1-(2-isopropyl-4-methyl-3-pyridyl)pyrido [2,3-d]pyrimidin-2-one] | 1.36 | 
18 | C=CC(=O)N1C[C@H](C)N(c2nc(=O)n(-c3c(C)ccnc3C(C)C)c3nc(-c4cc(OC)cc5ccccc45)c(Cl)cc23)C[C@H]1C (atropisomer, axis not shown; (M)) [Example 92-70, (M)-6-Chloro-4-[(2S,5R)-2,5-dimethyl-4-prop-2-enoyl-piperazin-1-yl]-1-(2-isopropyl-4-methyl-3-pyridyl)-7-(3-methoxy-1-naphthyl)pyrido [2,3-d]pyrimidin-2-one] | 0.6 | 
19 | C=CC(=O)N1C[C@H](C)N(c2nc(=O)n(-c3c(C)ccnc3C(C)C)c3nc(-c4nc(C)sc4C)c(Cl)cc23)C[C@H]1C (atropisomer, axis not shown; (M)) [Example 92-71, (M)-6-Chloro-4-[(2S,5R)-2,5-dimethyl-4-prop-2-enoyl-piperazin-1-yl]-7-(2,5-dimethylthiazol-4-yl)-1-(2-isopropyl-4-methyl-3-pyridyl)pyrido [2,3-d]pyrimidin-2-one] | 1.36 | 
20 | C=CC(=O)N1C[C@H](C)N(c2nc(=O)n(-c3c(C)ccnc3C(C)C)c3nc(-c4scnc4C)c(Cl)cc23)C[C@H]1C (atropisomer, axis not shown; (M)) [Example 92-72, (M)-6-Chloro-4-[(2S,5R)-2,5-dimethyl-4-prop-2-enoyl-piperazin-1-yl]-1-(2-isopropyl-4-methyl-3-pyridyl)-7-(4-methylthiazol-5-yl)pyrido[2,3-d]pyrimidin-2-one] | 8.87 | 
21 | C=CC(=O)N1C[C@H](C)N(c2nc(=O)n(-c3c(C)ccnc3C(C)C)c3nc(-c4cc(F)ccc4F)c(F)cc23)C[C@H]1C (atropisomer, axis not shown; (M)) [Example 94-3, (M)-7-(2,5-difluorophenyl)-4-[(2S,5R)-2,5-dimethyl-4-prop-2-enoyl-piperazin-1-yl]-6-fluoro-1-(2~ isopropyl-4-methyl-3-pyridyl)pyrido [2,3-d]pyrimidin-2-one] | 0.684 | 
